Test results reported in US20060223708A1, “Substituted N-[pyrimidin-2-ylmethyl]carboxamides and their use as herbicides and plant growth regulators” (Bayer CropScience GmbH, priority 2005, published 2006).

What was measured:
Setaria viridis [1] = assay: Herbicidal post-emergence effect on harmful plants; type: in vivo; conditions: dosage 1000 g of a.i./ha, rated after 3 to 4 weeks
Experimental: (§1) 2. Herbicidal Post-Emergence Effect on Harmful Plants
(§2) Seeds of monocotyledonous and dicotyledonous harmful plants are placed in sandy loam soil in cardboard pots, covered with soil and cultivated in a greenhouse under good growth conditions. Two to three weeks after sowing, the test plants are treated at the three-leaf stage. The compounds according to the invention, formulated in the form of wettable powders or emulsion concentrates, are sprayed onto the surface of the green parts of the plants at an application rate of 600 to 800 l of water/ha (converted), in various dosages. After the test plants have remained in the greenhouse under optimum growth conditions for 3 to 4 weeks, the effect of the compounds is rated. Here, the compounds according to the invention have excellent activity against a broad spectrum of economically important monocotyledonous and dicotyledonous harmful plants, see Tables H to J.

Amaranthus retroflexus [2] = assay: Herbicidal post-emergence effect on harmful plants; type: in vivo; conditions: dosage 1000 g of a.i./ha, rated after 3 to 4 weeks
Experimental: as §1, §2

Cyperus iria = assay: Herbicidal post-emergence effect on harmful plants; type: in vivo; conditions: dosage 1000 g of a.i./ha, rated after 3 to 4 weeks
Experimental: as §1, §2

Echinochloa crus galli = assay: Herbicidal post-emergence effect on harmful plants; type: in vivo; conditions: dosage 1000 g of a.i./ha, rated after 3 to 4 weeks
Experimental: as §1, §2

[3] = Pre-emergence effect on weeds; type: in vivo, Sinapis arvensis; conditions: dosage 1000 g of a.i./ha, scored visually after 3 to 4 weeks
From the text: (§3) 1. Pre-Emergence Effect on Weeds
(§4) Seeds of monocotyledonous and dicotyledonous weed plants are placed into sandy loam soil in cardboard pots and covered with soil. The compounds of the invention, formulated as wettable powders or emulsion concentrates, are then applied to the surface of the soil cover in the form of aqueous suspensions or emulsions at an application rate of 600 to 800 l of water/ha (converted), in various dosages. After the treatment, the pots are placed in a greenhouse and kept under good growth conditions for the weeds. After the test plants have emerged, the damage to the plants or the negative effect on the emergence was scored visually after a test period of 3 to 4 weeks by comparison with untreated controls. Here, the compounds according to the invention have excellent activity against a broad spectrum of economically important monocotyledonous and dicotyledonous harmful plants, see Tables A to G.

Setaria viridis [4] = assay: Pre-emergence effect on weeds; type: in vivo; conditions: dosage 1000 g of a.i./ha, scored visually after 3 to 4 weeks
From the text: as §3, §4

Amaranthus retroflexus [5] = assay: Pre-emergence effect on weeds; type: in vivo; conditions: dosage 1000 g of a.i./ha, scored visually after 3 to 4 weeks
From the text: as §3, §4

Stellaria media = assay: Pre-emergence effect on weeds; type: in vivo; conditions: dosage 1000 g of a.i./ha, scored visually after 3 to 4 weeks
From the text: as §3, §4

Lolium multiflorum [6] = assay: Herbicidal post-emergence effect on harmful plants; type: in vivo; conditions: dosage 1000 g of a.i./ha, rated after 3 to 4 weeks
Experimental: as §1, §2

Lolium multiflorum [7] = assay: Pre-emergence effect on weeds; type: in vivo; conditions: dosage 1000 g of a.i./ha, scored visually after 3 to 4 weeks
From the text: as §3, §4

[8] = Pre-emergence effect on weeds; type: in vivo, Avena fatua; conditions: dosage 1000 g of a.i./ha, scored visually after 3 to 4 weeks
From the text: as §3, §4

| SMILES | Herbicidal effect SETVI (Setaria viridis [1]) [%] | Herbicidal effect AMARE (Amaranthus retroflexus [2]) [%] | Herbicidal effect CYPIR (Cyperus iria) [%] | Herbicidal effect ECHCG (Echinochloa crus galli) [%] | Herbicidal effect SINAL [3] [%] | Herbicidal effect SETVI (Setaria viridis [4]) [%] | Herbicidal effect AMARE (Amaranthus retroflexus [5]) [%] | Herbicidal effect STEME (Stellaria media) [%] | Herbicidal effect LOLMU (Lolium multiflorum [6]) [%] | Herbicidal effect LOLMU (Lolium multiflorum [7]) [%] | Herbicidal effect AVESA [8] [%] |
| --- | --- | --- | --- | --- | --- | --- | --- | --- | --- | --- | --- |
| Cc1cc(Oc2csc(C(F)(F)F)c2)nc(CNC(=O)C2CC2)n1 [Compound 2-205] | 90 | 90 | 90 | 90 | 90 | 100 | 100 | 100 | – | – | – |
| CCc1cc(Oc2csc(C(F)(F)F)c2)nc(CNC(=O)C2CC2)n1 [Compound 2-304] | – | – | – | – | 100 | 100 | 100 | 100 | – | – | – |
| Cc1cc(Oc2cc(C(F)(F)F)nn2C)nc(CNC(=O)C2CC2)n1 [Compound 5-206] | – | 90 | 100 | 100 | 100 | 100 | – | 100 | 90 | 100 | – |
| CCc1cc(Oc2cc(C(F)(F)F)nn2C)nc(CNC(=O)C(F)(F)F)n1 [Compound 5-319] | – | – | – | – | 100 | 100 | – | 100 | – | 100 | – |
| CCc1cc(Oc2ccnc(C(F)(F)F)c2)nc(CNC(=O)C2CC2)n1 [Compound 3-306, N-[(4-ethyl-6-{[2-(trifluoromethyl)pyridin-4-yl]oxy}pyrimidin-2-yl)methyl]cyclopropanecarboxamide] | – | 90 | 100 | 90 | 100 | 100 | 100 | – | 90 | – | 100 |
| Cc1cc(Oc2cccc(C(F)(F)F)c2)nc(CNC(=O)C2CCC2)n1 [Compound 1-505] | – | – | – | – | – | 100 | 100 | 100 | – | 100 | – |
| Cc1cc(Oc2cccc(C(F)(F)F)c2)nc(CNC(=O)C2CC2)n1 [Compound 1-206, N-[(4-methyl-6-{(3-trifluoromethyl)phenoxy}pyrimidin-2-yl)methyl]cyclopropanecarboxamide] | – | – | – | – | – | 100 | 100 | 100 | – | 100 | – |
